Source: US9931327B2, “Derivatives of 1-phenyl-2-pyridinyl alkyl alcohols as phosphodiesterase inhibitors” (Chiesi Farmaceutici S.p.A., priority 2011, dated 2018)
Read-outs that look alike come from different tables or passages of the source.

Tested on: LPS-induced TNF-α release in peripheral blood mononuclear cells (PBMCs)
Assay: In vitro determination of PDE4 inhibitory activity in the PBMCs assay (LPS-induced TNF-α release)
Assay type: cell-based, human
Details: PBMC, human PBMCs, LPS 3 ng/ml, 18 hours, read-out: PDE4 inhibition (IC50, 50% inhibition of LPS-induced TNF-α release)
Summary of the method: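 Cryopreserved human PBMCs (10^5 cells/well) pre-incubated 30 min with compound (10^−12 to 10^−6 M or 10^−3 to 10^−7 M), then stimulated with LPS 3 ng/ml for 18 h at 37 °C. TNF-α in medium by ELISA; IC50 as mean ± 95% confidence limits.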

SMILES | IC50 (TNF-α by ELISA) | IC50 (compounds of formula (II))
NCc1cccc(C(=O)N2CCS[C@H]2C(=O)O[C@@H](Cc2c(Cl)c[n+]([O-])cc2Cl)c2ccc(OC(F)F)c(OCC3CC3)c2)c1 [Compound 21, 4-((S)-2-((S)-3-(3-(aminomethyl)benzoyl)thiazolidine-2-carbonyloxy)-2-(3-(cyclopropylmethoxy)-4-(difluoromethoxy)phenyl)ethyl)-3,5-dichloropyridine 1-oxide] | 1 to 10 nM | –
Cc1noc2ncc(S(=O)(=O)N3CSC[C@H]3C(=O)O[C@@H](Cc3c(Cl)c[n+]([O-])cc3Cl)c3ccc(OC(F)F)c(OCC4CC4)c3)cc12 [Compound 253, 3,5-dichloro-4-((S)-2-(3-(cyclopropylmethoxy)-4-(difluoromethoxy)phenyl)-2-((R)-3-(3-methylisoxazolo[5,4-b]pyridin-5-ylsulfonyl)thiazolidine-4-carbonyloxy)ethyl)pyridine 1-oxide] | 0.1 to 1 nM | –
Cc1cc(S(=O)(=O)N2CCS[C@H]2C(=O)O[C@@H](Cc2c(Cl)c[n+]([O-])cc2Cl)c2ccc(OC(F)F)c(OCC3CC3)c2)c(C)s1 [Compound 203, 3,5-dichloro-4-((S)-2-(3-(cyclopropylmethoxy)-4-(difluoromethoxy)phenyl)-2-((S)-3-(2,5-dimethylthiophen-3-ylsulfonyl)thiazolidine-2-carbonyloxy)ethyl)pyridine 1-oxide] | 0.1 to 1 nM | –
O=C(OCCN1CCOCC1)c1cccc(S(=O)(=O)N2CCSC2C(=O)O[C@@H](Cc2c(Cl)c[n+]([O-])cc2Cl)c2ccc(OC(F)F)c(OCC3CC3)c2)c1 (single isomer, unassigned) [Compound 133, 3,5-dichloro-4-((S)-2-(3-(cyclopropylmethoxy)-4-(difluoromethoxy)phenyl)-2-((S)-3-(3-((2-morpholinoethoxy)carbonyl)phenylsulfonyl)thiazolidine-2-carbonyloxy)ethyl)pyridine 1-oxide or 3,5-dichloro-4-((S)-2-(3-(cyclopropylmethoxy)-4-(difluoromethoxy)phenyl)-2-((R)-3-(3-((2-morpholinoethoxy)carbonyl)phenylsulfonyl)thiazolidine-2-carbonyloxy)ethyl)pyridine 1-oxide] | < 0.1 nM | –
Cc1noc2ncc(S(=O)(=O)N3CCSC3C(=O)O[C@@H](Cc3c(Cl)c[n+]([O-])cc3Cl)c3ccc(OC(F)F)c(OCC4CC4)c3)cc12 (stereo in doubt) [Compound 239, 3,5-dichloro-4-((S)-2-(3-(cyclopropylmethoxy)-4-(difluoromethoxy)phenyl)-2-((S)-3-(3-methylisoxazolo[5,4-b]pyridin-5-ylsulfonyl)thiazolidine-2-carbonyloxy)ethyl)pyridine 1-oxide] | < 0.1 nM | –
CN1CCOc2ccc(S(=O)(=O)N3CCC[C@H]3C(=O)O[C@@H](Cc3c(Cl)c[n+]([O-])cc3Cl)c3ccc(OC(F)F)c(OCC4CC4)c3)cc21 [Compound 250, 3,5-dichloro-4-((S)-2-(3-(cyclopropylmethoxy)-4-(difluoromethoxy)phenyl)-2-((S)-1-(4-methyl-3,4-dihydro-2H-benzo[b][1,4]oxazin-6-ylsulfonyl)pyrrolidine-2-carbonyloxy)ethyl)pyridine 1-oxide] | < 0.1 nM | –
COC(=O)c1ccccc1S(=O)(=O)N1CCS[C@H]1C(=O)O[C@@H](Cc1c(Cl)c[n+]([O-])cc1Cl)c1ccc(OC(F)F)c(OCC2CC2)c1 [Compound 101, 3,5-dichloro-4-((S)-2-(3-(cyclopropylmethoxy)-4-(difluoromethoxy)phenyl)-2-((S)-3-(2-(methoxycarbonyl)phenylsulfonyl)thiazolidine-2-carbonyloxy)ethyl)pyridine 1-oxide] | < 0.1 nM | –
O=C(OC(Cc1c(Cl)c[n+]([O-])cc1Cl)c1ccc(OC(F)F)c(OCC2CC2)c1)C1CNCCO1 (stereo not drawn) [Compound 8] | – | 1 to 10 nM
O=C(O[C@@H](Cc1c(Cl)c[n+]([O-])cc1Cl)c1ccc(OC(F)F)c(OCC2CC2)c1)[C@@H]1SCCN1S(=O)(=O)c1ccccc1 [Compound 89, 3,5-dichloro-4-((S)-2-(3-(cyclopropylmethoxy)-4-(difluoromethoxy)phenyl)-2-((S)-3-(phenylsulfonyl)thiazolidine-2-carbonyloxy)ethyl)pyridine 1-oxide] | 0.1 to 1 nM | –
COc1ccc(S(=O)(=O)N2CCSC2C(=O)O[C@@H](Cc2c(Cl)c[n+]([O-])cc2Cl)c2ccc(OC(F)F)c(OCC3CC3)c2)cc1C(=O)N(C)C (stereo partly drawn) [Compound 123, 3,5-dichloro-4-((2S)-2-(3-(cyclopropylmethoxy)-4-(difluoromethoxy)phenyl)-2-(3-(3-(dimethylcarbamoyl)-4-methoxyphenylsulfonyl)thiazolidine-2-carbonyloxy)ethyl)pyridine 1-oxide] | < 0.1 nM | –
Nc1ccc(S(=O)(=O)N2CCC[C@H]2C(=O)O[C@@H](Cc2c(Cl)c[n+]([O-])cc2Cl)c2ccc(OC(F)F)c(OCC3CC3)c2)cc1 [Compound 136, 4-((S)-2-((S)-1-(4-aminophenylsulfonyl)pyrrolidine-2-carbonyloxy)-2-(3-(cyclopropylmethoxy)-4-(difluoromethoxy)phenyl)ethyl)-3,5-dichloropyridine 1-oxide] | 0.1 to 1 nM | –
O=C(O[C@@H](Cc1c(Cl)c[n+]([O-])cc1Cl)c1ccc(OC(F)F)c(OCC2CC2)c1)C1SCCN1S(=O)(=O)c1cccc(Cl)c1 (stereo partly drawn) [Compound 63, 3,5-dichloro-4-((2S)-2-(3-(3-chlorophenylsulfonyl)thiazolidine-2-carbonyloxy)-2-(3-(cyclopropylmethoxy)-4-(difluoromethoxy)phenyl)ethyl)pyridine 1-oxide] | 0.1 to 1 nM | –
COc1ccc(S(=O)(=O)N2CCCC[C@H]2C(=O)O[C@@H](Cc2c(Cl)c[n+]([O-])cc2Cl)c2ccc(OC(F)F)c(OCC3CC3)c2)cc1OC [Compound 98, 3,5-dichloro-4-((S)-2-(3-(cyclopropylmethoxy)-4-(difluoromethoxy)phenyl)-2-((S)-1-(3,4-dimethoxyphenylsulfonyl)piperidine-2-carbonyloxy)ethyl)pyridine 1-oxide] | 0.1 to 1 nM | –
COc1ccc(S(=O)(=O)N2CCS[C@H]2C(=O)O[C@@H](Cc2c(Cl)c[n+]([O-])cc2Cl)c2ccc(OC(F)F)c(OCC3CC3)c2)cc1C(=O)N(C)C [Compound 131, 3,5-dichloro-4-((S)-2-(3-(cyclopropylmethoxy)-4-(difluoromethoxy)phenyl)-2-((S)-3-(3-(dimethylcarbamoyl)-4-methoxyphenylsulfonyl)thiazolidine-2-carbonyloxy)ethyl)pyridine 1-oxide] | < 0.1 nM | –
COc1ccc(S(=O)(=O)N2CCS[C@H]2C(=O)O[C@@H](Cc2c(Cl)c[n+]([O-])cc2Cl)c2ccc(OC(F)F)c(OCC3CC3)c2)cc1 [Compound 110, 3,5-dichloro-4-((S)-2-(3-(cyclopropylmethoxy)-4-(difluoromethoxy)phenyl)-2-((S)-3-(4-methoxyphenylsulfonyl)thiazolidine-2-carbonyloxy)ethyl)pyridine 1-oxide] | 0.1 to 1 nM | –
COc1ccc(S(=O)(=O)N2CCSC2C(=O)O[C@@H](Cc2c(Cl)c[n+]([O-])cc2Cl)c2ccc(OC(F)F)c(OCC3CC3)c2)cc1OC (stereo partly drawn) [Compound 73, 3,5-dichloro-4-((2S)-2-(3-(cyclopropylmethoxy)-4-(difluoromethoxy)phenyl)-2-(3-(3,4-dimethoxyphenylsulfonyl)thiazolidine-2-carbonyloxy)ethyl)pyridine 1-oxide] | < 0.1 nM | –
CN(C)S(=O)(=O)c1cccc(S(=O)(=O)N2CCCC2C(=O)O[C@@H](Cc2c(Cl)c[n+]([O-])cc2Cl)c2ccc(OC(F)F)c(OCC3CC3)c2)c1 (stereo in doubt) [Compound 238, 3,5-dichloro-4-((S)-2-(3-(cyclopropylmethoxy)-4-(difluoromethoxy)phenyl)-2-((S)-1-(3-(N,N-dimethylsulfamoyl)phenylsulfonyl)pyrrolidine-2-carbonyloxy)ethyl)pyridine 1-oxide] | 0.1 to 1 nM | –
COc1ccc(S(=O)(=O)N2CCSC2C(=O)O[C@@H](Cc2c(Cl)c[n+]([O-])cc2Cl)c2ccc(OC(F)F)c(OCC3CC3)c2)cc1N (stereo partly drawn) [Compound 137, 4-((2S)-2-(3-(3-amino-4-methoxyphenylsulfonyl)thiazolidine-2-carbonyloxy)-2-(3-(cyclopropylmethoxy)-4-(difluoromethoxy)phenyl)ethyl)-3,5-dichloropyridine 1-oxide] | 0.1 to 1 nM | –
O=C(O[C@@H](Cc1c(Cl)c[n+]([O-])cc1Cl)c1ccc(OC(F)F)c(OCC2CC2)c1)[C@@H]1SCCN1S(=O)(=O)c1c[nH]c(C(=O)N2CCCC2)c1 [Compound 242, 3,5-dichloro-4-((S)-2-(3-(cyclopropylmethoxy)-4-(difluoromethoxy)phenyl)-2-((S)-3-(5-(pyrrolidine-1-carbonyl)-1H-pyrrol-3-ylsulfonyl)thiazolidine-2-carbonyloxy)ethyl)pyridine 1-oxide] | < 0.1 nM | –
O=C(O[C@@H](Cc1c(Cl)c[n+]([O-])cc1Cl)c1ccc(OC(F)F)c(OCC2CC2)c1)[C@@H]1SCCN1S(=O)(=O)c1ccc2c(c1)OCCO2 [Compound 201, 3,5-dichloro-4-((S)-2-(3-(cyclopropylmethoxy)-4-(difluoromethoxy)phenyl)-2-((S)-3-(2,3-dihydrobenzo[b][1,4]dioxin-6-ylsulfonyl)thiazolidine-2-carbonyloxy)ethyl)pyridine 1-oxide] | 0.1 to 1 nM | –
O=C(O[C@@H](Cc1c(Cl)c[n+]([O-])cc1Cl)c1ccc(OC(F)F)c(OCC2CC2)c1)C1SCCN1C(=O)c1cncs1 (stereo partly drawn) [Compound 38, 3,5-dichloro-4-((2S)-2-(3-(cyclopropylmethoxy)-4-(difluoromethoxy)phenyl)-2-(3-(thiazole-5-carbonyl)thiazolidine-2-carbonyloxy)ethyl)pyridine 1-oxide] | < 0.1 nM | –
